Assays:
[1] = system: Cholesterol absorption; assay: Effect on cholesterol absorption + 3H-taurocholic acid elimination via fecal elimination; type: in vivo, NMRI mice; conditions: dose which doubles fecal elimination of TCA or cholesterol vs control group, peroral, feces collected over 24 h
Experimental: Effect on Cholesterol Absorption+^3H-Taurocholic Acid Elimination via Fecal Elimination in Mice, Rats or Hamsters
NMRI mice, Wistar rats or Golden Syrian hamsters (in groups of n=4-6) are kept with a standard diet (Altromin, Lage (Lippe), Germany) in metabolic cages. The afternoon prior to the administration of the radioactive tracers (^14C-cholesterol) the feed is withdrawn, and the animals are adapted to the cage wires.
In addition, 24 hours prior to the peroral administration of the test meal (^14C-cholesterol in Intralipid® 20, Pharmacia-Upjohn), the animals are labelled s.c. with ^3H-TCA (taurocholic acid) (for example 1 μCi/mouse to 5 μCi/rat).
Cholesterol absorption test: 0.25 ml/mouse Intralipid® 20 (Pharmacia-Upjohn) (spiked with 0.25 μCi ^14C-cholesterol in 0.1 mg of cholesterol) is administered perorally using a stomach tube. […]
The feces are collected over a period of 24 h: the fecal elimination of ^14C-cholesterol and 3H-taurocholic acid (TCA) is determined after 24 hours. […]
The total weight is determined, the sample is made up with water to a defined volume and then homogenized, an aliquot is evaporated to dryness and incinerated in an Oximate (Model 307, Packard, for the incineration of radioactively labelled samples): the amount of radioactive ^3H—H2O und ^14C—CO2 is extrapolated to the amount of ^3H-taurocholic acid or ^14C-cholesterol eliminated (dual isotope technique). […]

[2] = Test of the dissolution rate (USP 27 paddle apparatus); type: physicochemical; conditions: for release [%]: 20 mg in 1000 ml 0.1% aqueous SDS, 37° C., 75 rpm paddle, mean of three
Experimental: The dissolution rate of the crystalline hydrates of the formula I was tested as follows: […]
The dissolution rate is measured in a standard apparatus (paddle) according to the US Pharmacopeia (USP 27) at 37° C. The stirrer speed is 75 rpm.
20 mg of the substance to be examined are added to 1000 ml of a 0.1% strength aqueous sodium dodecylsulfate (SDS) solution. After 15, 30, 45 and 60 minutes, samples of 20 ml are taken.
The portion dissolved is determined photometrically at 256 nm using a comparison solution. The measurement is carried out in 10 mm cuvettes using, for example, a Perkin Elmer Lambda 25 photometer. The samples are measured directly after removal of the samples. In each case, a mean is calculated from three determinations.
The comparison solution is prepared as follows: 2-3 mg of the batch used are dissolved in 2 ml of dimethylformamide in a measuring flask. The volume is then made up to 100.0 ml using 0.1% strength SDS solution.
The amorphous compound of the formula I used in Example 2 was compared to the crystalline compound of the formula I obtained in the same Example 2.

[3] = Water content on storage at 23° C./60% relative atmospheric humidity; type: physicochemical; conditions: for Water content (%): previously dried to 0.8% water
Experimental: The hydrate obtained in Example 2 was dried under reduced pressure at 50° C. until a water content of 0.8% had been reached. The crystalline product was stored at 23° C./60% relative atmospheric humidity.

[4] = storage time 0.5 h at 23° C./60% relative humidity
[5] = storage time 2 h at 23° C./60% relative humidity
[6] = storage time 4 h at 23° C./60% relative humidity
[7] = storage time 6 h at 23° C./60% relative humidity
[8] = storage time 24 h at 23° C./60% relative humidity

## COc1ccc([C@@H]2[C@@H](CC[C@H](O)c3ccc(F)cc3)C(=O)N2c2ccc(CNC(=O)CCCCCCCCCCC(=O)NC[C@H](O)[C@@H](O)[C@H](O)[C@H](O)CO)cc2)cc1 [Example 2]
[1]
  ED200 value (fecal elimination [mg/mouse]): 0.01 mg/mouse
[2]; 15 min, listed as Crystalline compound of the formula I
  release [%]: 88.0%
[2]; 30 min, listed as Crystalline compound of the formula I
  release [%]: 90.0%
[2]; 45 min, listed as Crystalline compound of the formula I
  release [%]: 94.6%
[2]; 60 min, listed as Crystalline compound of the formula I
  release [%]: 98.7%
[2]; after 15 minutes
  amount in solution relative to the amorphous active ingredient: almost three times the amount of the amorphous active ingredient

## COc1ccc([C@@H]2[C@@H](CC[C@H](O)c3ccc(F)cc3)C(=O)N2c2ccc(CNC(=O)CCCCCCCCCCC(=O)NC[C@H](O)[C@@H](O)[C@H](O)[C@H](O)CO)cc2)cc1 [Example 6]
[3]; [4]
  n (hydrate water per formula I): 0.5
  Water content (%): 1.1%
[3]; [5]
  n (hydrate water per formula I): 1.09
  Water content (%): 2.4%
[3]; [6]
  n (hydrate water per formula I): 1.14
  Water content (%): 2.5%
[3]; [7]
  n (hydrate water per formula I): 1.09
  Water content (%): 2.4%
[3]; [8]
  n (hydrate water per formula I): 1.14
  Water content (%): 2.5%

## COc1ccc([C@@H]2[C@@H](CC[C@H](O)c3ccc(F)cc3)C(=O)N2c2ccc(CNC(=O)CCCCCCCCCCC(=O)NC[C@H](O)[C@@H](O)[C@H](O)[C@H](O)CO)cc2)cc1 [Amorphous compound of the formula II, reference compound]
[2]; 15 min
  release [%]: 30.0%
[2]; 30 min
  release [%]: 41.3%
[2]; 45 min
  release [%]: 44.7%
[2]; 60 min
  release [%]: 46.2%
